Experimental findings from publication PMC5819316, “Structural and Biochemical Characterization of BdsA from Bacillus subtilis WU-S2B, a Key Enzyme in the “4S” Desulfurization Pathway” (Frontiers in Microbiology, 2018) are described below.

The stoichiometry N is the number of molecules, sites or subunits per partner or assembly.

One data set deals with T1, BdsA (Bacillus subtilis, UniProt Q8GRC7).
T1 construct: monomer 453 residues; homotetramer, ~220 kDa by gel filtration
The data set can be described thus: X-ray crystallography, […] A, crystal soaking. Type of data set: binding. Conditions: crystals soaked in 1 mM FMN for 30 min, pH 5.5; one FMN per subunit, active site.

Data set [1] concerns the molecule itself. The data set can be described thus: SEC; Superdex-200 gel filtration in 10 mM Tris-HCl (pH 8.0), 100 mM NaCl; oligomeric state in solution from the elution volume (~220 kDa). On the technique in general: In gel filtration, larger molecules generally elute earlier.

Consider `Cc1cc2nc3c(=O)[nH]c(=O)nc-3n(C[C@H](O)[C@H](O)[C@H](O)COP(=O)(O)O)c2cc1C` [FMN], for which, on BdsA, the “X-ray crystallography, 2.4 A, crystal soaking” value is “The structure of the tetrameric BdsA–FMN complex contains four FMN molecules”.

B1: DBT sulfone monooxygenase BdsA from Bacillus subtilis WU-S2B (enzyme)
chain: MAEQRQLHLAGFFSAGNVTHAHGAWRHVGATNGFLTGEFYKQIARTLERGKFDLLFLPDGLAIEDSYGDNLETGVGLGGQGAVALEPTSVIATMAAVTQRLGLGATVSTTYYPPYHVARVFATLDNLSDGRISWNVVTSLNDSEARNFGVDEHLEHDIRYDRADEFLEAVKKLWSSWSEDALLLDKVGGRFADPKKVQYVNHRGRWLSVRGPLQVPRSRQGEPVILQAGLSPRGRRFAGRWAEAVFSVSPNLDIMRAVYQDIKAHVAAAGRDPEQTKVFTAVMPVLGETEQVARERLEYLNSLVHPEVGLSTLSSHSGLNLSKYPLDTKFSDIVADLGDRHVPTMLQMFSAVAGGGADLTLAELGRRYGTNVGFVPQWAGTAEQIADQLISHFEAGAADGFIISPAYLPGIYEEFVDQVVPLLQQRGVFRTEYEGTTLREHLGLAHPEVGSIR
notes: BdsA (DBT sulfone monooxygenase), Bacillus subtilis WU-S2B; synthesized bdsA gene cloned into the NdeI and XhoI sites of pET-15b; each monomer is composed of 453 amino acids; in the crystal the N-terminus to Gln4 and Ser451 to the C-terminus are not visible; No removal of the His-tag is described; also called apo-BdsA; dibenzothiophene sulfone monooxygenase; source: E. coli BL21 (DE3), purified …
For B1, the “stoichiometry N” value in data set [1] was determined as 4.
